Measurements reported in ChEMBL document CHEMBL3259709, “Quinoline Derivatives as 5-HT6 Receptor PET Ligands” (ACS Med Chem Lett, 2014).

Assays:
[1] = Plasma concentration in rat at 0.05 mg/kg, iv after 3 mins; type: ADME, organism-based; parameters: dose 0.05 mg/kg, route intravenous
[2] = Ratio of free drug level from brain to plasma concentration in rat at 0.05 mg/kg, iv after 3 mins; type: ADME, organism-based; parameters: dose 0.05 mg/kg, route intravenous; conditions: read-out: BPR
[3] = Ratio of free drug level from brain to plasma concentration in rat at 0.05 mg/kg, iv after 5 mins; type: ADME, organism-based; parameters: dose 0.05 mg/kg, route intravenous; conditions: read-out: BPR
[4] = Plasma concentration in rat at 0.05 mg/kg, iv after 5 mins; type: ADME, organism-based; parameters: dose 0.05 mg/kg, route intravenous
Nucleic Acid [5] = test: Ratio of drug level from cortex to cerebellum in rat at 0.05 mg/kg, iv after 40 mins; type: ADME, organism-based; parameters: dose 0.05 mg/kg, route intravenous; conditions: in vivo
Nucleic Acid [6] = test: Ratio of drug level from hippocampus to cerebellum in rat at 0.05 mg/kg, iv after 40 mins; type: ADME, organism-based; parameters: dose 0.05 mg/kg, route intravenous; conditions: in vivo
Nucleic Acid [7] = test: Ratio of drug level from striatum to cerebellum in rat brain at 0.05 mg/kg, iv after 5 mins; type: ADME, organism-based; parameters: dose 0.05 mg/kg, route intravenous; conditions: in vivo
Nucleic Acid [8] = test: Ratio of drug level from cortex to cerebellum in rat at 0.05 mg/kg, iv after 5 mins; type: ADME, organism-based; parameters: dose 0.05 mg/kg, route intravenous; conditions: in vivo
Nucleic Acid [9] = test: Ratio of drug level from striatum to cerebellum in rat brain at 0.05 mg/kg, iv after 40 mins; type: ADME, organism-based; parameters: dose 0.05 mg/kg, route intravenous; conditions: in vivo
Nucleic Acid [10] = test: Ratio of drug level from hippocampus to cerebellum in rat at 0.05 mg/kg, iv after 5 mins; type: ADME, organism-based; parameters: dose 0.05 mg/kg, route intravenous; conditions: in vivo
[11] = target: 5-hydroxytryptamine receptor 2A (Homo sapiens, UniProt P28223); test: Displacement of [125I]-R-O-DOI from human 5-HT2A receptor expressed in CHO-K1 cells by liquid scintillation spectrometry; type: cell-based
Chain of 5-hydroxytryptamine receptor 2A (P28223 whole entry): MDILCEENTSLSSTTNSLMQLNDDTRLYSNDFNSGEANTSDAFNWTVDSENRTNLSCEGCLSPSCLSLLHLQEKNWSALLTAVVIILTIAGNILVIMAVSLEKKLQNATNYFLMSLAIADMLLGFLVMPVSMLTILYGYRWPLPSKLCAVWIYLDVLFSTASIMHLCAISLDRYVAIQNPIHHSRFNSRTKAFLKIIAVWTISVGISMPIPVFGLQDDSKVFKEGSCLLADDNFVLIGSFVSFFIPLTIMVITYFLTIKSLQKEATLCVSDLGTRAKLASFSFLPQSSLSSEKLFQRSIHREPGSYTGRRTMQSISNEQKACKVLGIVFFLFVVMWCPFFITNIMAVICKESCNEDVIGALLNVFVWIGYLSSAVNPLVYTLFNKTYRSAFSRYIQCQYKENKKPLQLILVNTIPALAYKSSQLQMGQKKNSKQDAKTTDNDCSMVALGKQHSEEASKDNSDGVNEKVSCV

CN1CCC(c2cccc3cc(S(=O)(=O)c4ccccn4)cnc23)CC1
concentration at 0.05 h [1]: 104 ng/mL
Kp uu at 0.05 h [2]: 0.21
Kp uu at 5 min [3]: 0.28
concentration at 5 min [4]: 83.5 ng/mL

[3H]C([3H])([3H])N1CCC(c2cccc3cc(S(=O)(=O)c4ccccn4)cnc23)CC1
Ratio (Nucleic Acid [5]): 1.2
Ratio (Nucleic Acid [6]): 1.07
Ratio (Nucleic Acid [7]): 0.81
Ratio (Nucleic Acid [8]): 0.9
Ratio (Nucleic Acid [9]): 1.31
Ratio (Nucleic Acid [10]): 1.06

CN1CCN(c2cccc3cc(S(=O)(=O)c4cccc(F)c4)cnc23)CC1
Ki [11]: 0.39 nM
